From ChEMBL document CHEMBL3853324, “Optimizing Protonation States for Selective Double-Strand DNA Photocleavage in Hypoxic Tumors: pH-Gated Transitions of Lysine Dipeptides” (J Med Chem, 2016) come the findings set out here.

The structures appear in SMILES notation. Active and inactive are the calls of the source. The calls are words filed in the database; no cut-off is given here.

Test system in the first data set: not listed separately
Put plainly: Displacement of ethidium bromide from DNA (unknown origin) assessed as Stem-Volmer quenching constant at pH 7 by UV-spectroscopic analysis. Details: unit not given here.
`N[C@@H](Cc1ccccc1)C(=O)NCCC[C@H](N)C(=O)Nc1ccc(C#Cc2c(F)c(F)nc(F)c2F)cc1`: the KSV was 23.6.
Consider `C[C@H](N)C(=O)NCCC[C@H](N)C(=O)Nc1ccc(C#Cc2c(F)c(F)nc(F)c2F)cc1`, for which the KSV is 7.8.
Consider `N[C@@H](Cc1c[nH]c2ccccc12)C(=O)NCCCC[C@H](N)C(=O)Nc1ccc(C#Cc2c(F)c(F)nc(F)c2F)cc1`, for which the KSV was 9.2.
Consider `N[C@@H](Cc1ccccc1)C(=O)NC[C@H](N)C(=O)Nc1ccc(C#Cc2c(F)c(F)nc(F)c2F)cc1`, for which the KSV was determined as 5.9.

In a further data set the test system is Escherichia coli. Put plainly: Induction of Escherichia coli supercoiled pBR322 plasmid DNA photocleavage at 15 uM and pH 6 to 8 measured after 1 hr of UV-irradiation by densitometric analysis.
Take `N[C@@H](Cc1ccccc1)C(=O)NCCC[C@H](N)C(=O)Nc1ccc(C#Cc2c(F)c(F)nc(F)c2F)cc1`: the outcome was Active.
`C[C@H](N)C(=O)NCCC[C@H](N)C(=O)Nc1ccc(C#Cc2c(F)c(F)nc(F)c2F)cc1`: the result was Active.

Another data set relates to Escherichia coli. Put plainly: Induction of Escherichia coli supercoiled pBR322 plasmid DNA photocleavage assessed as single stranded break formation per molecule at pH 6 at 15 uM measured after 8 mins of UV-irradiation by densitometric analysis.
Regarding `N[C@@H](Cc1c[nH]c2ccccc12)C(=O)NCCCC[C@H](N)C(=O)Nc1ccc(C#Cc2c(F)c(F)nc(F)c2F)cc1`, the Activity was 0.9.

For another data set, the species on record is Bos taurus. Put plainly: Ratio of binding affinity to calf thymus DNA at pH 8 to binding affinity to calf thymus DNA at pH 6.
On to `N[C@@H](Cc1ccccc1)C(=O)NCCC[C@H](N)C(=O)Nc1ccc(C#Cc2c(F)c(F)nc(F)c2F)cc1`, for which the Ratio came to 3.
On to `C[C@H](N)C(=O)NCCC[C@H](N)C(=O)Nc1ccc(C#Cc2c(F)c(F)nc(F)c2F)cc1`, for which the Ratio was found to be 4.6.
Take `N[C@@H](Cc1c[nH]c2ccccc12)C(=O)NCCCC[C@H](N)C(=O)Nc1ccc(C#Cc2c(F)c(F)nc(F)c2F)cc1`: the Ratio is 1.7.
With `N[C@@H](Cc1ccccc1)C(=O)NC[C@H](N)C(=O)Nc1ccc(C#Cc2c(F)c(F)nc(F)c2F)cc1`, the Ratio turned out to be 1.1.

In the next data set the test system is Escherichia coli. Nature of the data set: Induction of Escherichia coli supercoiled pBR322 plasmid DNA photocleavage assessed as double stranded break formation per molecule at pH 6 at 15 uM measured after 6 mins of UV-irradiation by densitometric analysis.
Turning to `N[C@@H](Cc1c[nH]c2ccccc12)C(=O)NCCCC[C@H](N)C(=O)Nc1ccc(C#Cc2c(F)c(F)nc(F)c2F)cc1`, the Activity was found to be 0.15.

The next data set deals with Escherichia coli. Nature of the data set: Induction of Escherichia coli supercoiled pBR322 plasmid DNA photocleavage assessed as ratio of single stranded break to double stranded break formation per molecule at pH 6 at 15 uM measured after 6 mins of UV-irradiation by densitometric analysis.
On to `N[C@@H](Cc1c[nH]c2ccccc12)C(=O)NCCCC[C@H](N)C(=O)Nc1ccc(C#Cc2c(F)c(F)nc(F)c2F)cc1`, for which the Ratio is 5.3.

A further data set has as its system Escherichia coli. Nature of the data set: Induction of Escherichia coli supercoiled pBR322 plasmid DNA photocleavage assessed as single stranded break formation per molecule at pH 6 at 15 uM measured after 6 mins of UV-irradiation by densitometric analysis.
For the compound `N[C@@H](Cc1c[nH]c2ccccc12)C(=O)NCCCC[C@H](N)C(=O)Nc1ccc(C#Cc2c(F)c(F)nc(F)c2F)cc1`, the Activity worked out at 0.8.

Test system in the next data set: not listed separately
Nature of the data set: Dissociation constant, pKa of the compound for second ionization at 10 uM by fluorescence analysis. Format: physicochemical.
On to `N[C@@H](Cc1ccccc1)C(=O)NC[C@H](N)C(=O)Nc1ccc(C#Cc2c(F)c(F)nc(F)c2F)cc1`, for which the pKa at 10 µM was determined as 7.8.

Test system in another data set: not listed separately
Nature of the data set: Displacement of ethidium bromide from DNA (unknown origin) assessed as Stem-Volmer quenching constant at pH 8 by UV-spectroscopic analysis. Details: unit not given here.
With `N[C@@H](Cc1ccccc1)C(=O)NCCC[C@H](N)C(=O)Nc1ccc(C#Cc2c(F)c(F)nc(F)c2F)cc1`, the KSV worked out at 6.3.
As for `C[C@H](N)C(=O)NCCC[C@H](N)C(=O)Nc1ccc(C#Cc2c(F)c(F)nc(F)c2F)cc1`, the KSV worked out at 5.2.
Regarding `N[C@@H](Cc1c[nH]c2ccccc12)C(=O)NCCCC[C@H](N)C(=O)Nc1ccc(C#Cc2c(F)c(F)nc(F)c2F)cc1`, the KSV came to 5.7.
Turning to `N[C@@H](Cc1ccccc1)C(=O)NC[C@H](N)C(=O)Nc1ccc(C#Cc2c(F)c(F)nc(F)c2F)cc1`, the KSV is 2.6.

Test system in another data set: not listed separately
Put plainly: Dissociation constant, pKa of the compound in D2O for first ionization at 1 mM by H1-NMR analysis. In kind it is physicochemical.
For `N[C@@H](Cc1ccccc1)C(=O)NCCC[C@H](N)C(=O)Nc1ccc(C#Cc2c(F)c(F)nc(F)c2F)cc1`, the pKa at 1000 µM was determined as 7.2.
`C[C@H](N)C(=O)NCCC[C@H](N)C(=O)Nc1ccc(C#Cc2c(F)c(F)nc(F)c2F)cc1` showed a pKa at 1000 µM of 7.

In a further data set the test system is Escherichia coli. Nature of the data set: Induction of Escherichia coli supercoiled pBR322 plasmid DNA photocleavage at 15 uM and pH 6 in presence of NaN3 by densitometric analysis.
For `N[C@@H](Cc1c[nH]c2ccccc12)C(=O)NCCCC[C@H](N)C(=O)Nc1ccc(C#Cc2c(F)c(F)nc(F)c2F)cc1`, the outcome was Active.

A further data set is filed under the species Bos taurus. Put plainly: Binding affinity to calf thymus DNA assessed as binding constant at 15 uM and pH 6 by UV-spectroscopic analysis.
Regarding `N[C@@H](Cc1ccccc1)C(=O)NCCC[C@H](N)C(=O)Nc1ccc(C#Cc2c(F)c(F)nc(F)c2F)cc1`, the Kb worked out at 10700.
Regarding `C[C@H](N)C(=O)NCCC[C@H](N)C(=O)Nc1ccc(C#Cc2c(F)c(F)nc(F)c2F)cc1`, the Kb stood at 4440.
Consider `N[C@@H](Cc1c[nH]c2ccccc12)C(=O)NCCCC[C@H](N)C(=O)Nc1ccc(C#Cc2c(F)c(F)nc(F)c2F)cc1`, for which the Kb was determined as 10400.
On the same count and under the same terms, as for `N[C@@H](Cc1ccccc1)C(=O)NC[C@H](N)C(=O)Nc1ccc(C#Cc2c(F)c(F)nc(F)c2F)cc1`, the figure is 22300.

The subject of a further data set is Escherichia coli. Nature of the data set: Induction of Escherichia coli supercoiled pBR322 plasmid DNA photocleavage assessed as ratio of single stranded break to double stranded break formation per molecule at pH 6 at 15 uM measured after 8 mins of UV-irradiation by densitometric analysis.
`N[C@@H](Cc1c[nH]c2ccccc12)C(=O)NCCCC[C@H](N)C(=O)Nc1ccc(C#Cc2c(F)c(F)nc(F)c2F)cc1`: the Ratio came out at 4.3.

The next data set has as its system Escherichia coli. Put plainly: Induction of Escherichia coli supercoiled pBR322 plasmid DNA photocleavage at 15 uM and pH 6 in presence of DMSO by densitometric analysis.
For `N[C@@H](Cc1ccccc1)C(=O)NCCC[C@H](N)C(=O)Nc1ccc(C#Cc2c(F)c(F)nc(F)c2F)cc1`, the outcome was Active.
On to `N[C@@H](Cc1c[nH]c2ccccc12)C(=O)NCCCC[C@H](N)C(=O)Nc1ccc(C#Cc2c(F)c(F)nc(F)c2F)cc1`, for which the result was Active.

The next data set concerns Escherichia coli. Nature of the data set: Induction of Escherichia coli supercoiled pBR322 plasmid DNA photocleavage at 15 uM and pH 6 in presence of glycerol by densitometric analysis.
`N[C@@H](Cc1c[nH]c2ccccc12)C(=O)NCCCC[C@H](N)C(=O)Nc1ccc(C#Cc2c(F)c(F)nc(F)c2F)cc1`: the result was Active.

The next data set relates to Escherichia coli. Nature of the data set: Induction of Escherichia coli supercoiled pBR322 plasmid DNA photocleavage assessed as double stranded break formation per molecule at pH 6 at 15 uM measured after 4 mins of UV-irradiation by densitometric analysis.
Consider `N[C@@H](Cc1c[nH]c2ccccc12)C(=O)NCCCC[C@H](N)C(=O)Nc1ccc(C#Cc2c(F)c(F)nc(F)c2F)cc1`, for which the Activity is 0.

Test system in a further data set: not listed separately
Put plainly: Dissociation constant, pKa of the compound for first ionization at 10 uM by fluorescence analysis. Format: physicochemical.
Regarding `N[C@@H](Cc1ccccc1)C(=O)NCCC[C@H](N)C(=O)Nc1ccc(C#Cc2c(F)c(F)nc(F)c2F)cc1`, the pKa at 10 µM came to 7.1.
Compound `C[C@H](N)C(=O)NCCC[C@H](N)C(=O)Nc1ccc(C#Cc2c(F)c(F)nc(F)c2F)cc1` returned a pKa at 10 µM of 6.6.
As to `N[C@@H](Cc1c[nH]c2ccccc12)C(=O)NCCCC[C@H](N)C(=O)Nc1ccc(C#Cc2c(F)c(F)nc(F)c2F)cc1`, the pKa at 10 µM is 7.3.
For `N[C@@H](Cc1ccccc1)C(=O)NC[C@H](N)C(=O)Nc1ccc(C#Cc2c(F)c(F)nc(F)c2F)cc1`, the pKa at 10 µM came to 6.3.

The species entered for another data set is Bos taurus. Nature of the data set: Binding affinity to calf thymus DNA assessed as binding constant at 15 uM and pH 7 by UV-spectroscopic analysis.
As to `N[C@@H](Cc1ccccc1)C(=O)NCCC[C@H](N)C(=O)Nc1ccc(C#Cc2c(F)c(F)nc(F)c2F)cc1`, the Kb was 12700.
In the case of `C[C@H](N)C(=O)NCCC[C@H](N)C(=O)Nc1ccc(C#Cc2c(F)c(F)nc(F)c2F)cc1`, the Kb stood at 6750.
On to `N[C@@H](Cc1c[nH]c2ccccc12)C(=O)NCCCC[C@H](N)C(=O)Nc1ccc(C#Cc2c(F)c(F)nc(F)c2F)cc1`, for which the Kb is 16800.
For `N[C@@H](Cc1ccccc1)C(=O)NC[C@H](N)C(=O)Nc1ccc(C#Cc2c(F)c(F)nc(F)c2F)cc1`, the Kb turned out to be 14600.

The next data set has as its system Escherichia coli. Put plainly: Induction of Escherichia coli supercoiled pBR322 plasmid DNA photocleavage assessed as single stranded break formation per molecule at pH 6 at 15 uM measured after 4 mins of UV-irradiation by densitometric analysis.
Take `N[C@@H](Cc1c[nH]c2ccccc12)C(=O)NCCCC[C@H](N)C(=O)Nc1ccc(C#Cc2c(F)c(F)nc(F)c2F)cc1`: the Activity was 0.7.

Test system in a further data set: not listed separately
Put plainly: Dissociation constant, pKa of the compound in D2O for second ionization at 1 mM by H1-NMR analysis. In kind it is physicochemical.
Turning to `N[C@@H](Cc1ccccc1)C(=O)NCCC[C@H](N)C(=O)Nc1ccc(C#Cc2c(F)c(F)nc(F)c2F)cc1`, the pKa at 1000 µM amounted to 7.2.
`C[C@H](N)C(=O)NCCC[C@H](N)C(=O)Nc1ccc(C#Cc2c(F)c(F)nc(F)c2F)cc1` registered a pKa at 1000 µM of 7.8.

The next data set concerns Escherichia coli. Nature of the data set: Induction of Escherichia coli supercoiled pBR322 plasmid DNA photocleavage assessed as double stranded break formation per molecule at pH 6 at 15 uM measured after 8 mins of UV-irradiation by densitometric analysis.
For `N[C@@H](Cc1c[nH]c2ccccc12)C(=O)NCCCC[C@H](N)C(=O)Nc1ccc(C#Cc2c(F)c(F)nc(F)c2F)cc1`, the Activity came to 0.2.

The species entered for a further data set is Bos taurus. Nature of the data set: Binding affinity to calf thymus DNA assessed as binding constant at 15 uM and pH 8 by UV-spectroscopic analysis.
Take `N[C@@H](Cc1ccccc1)C(=O)NCCC[C@H](N)C(=O)Nc1ccc(C#Cc2c(F)c(F)nc(F)c2F)cc1`: the Kb is 32100.
Take `C[C@H](N)C(=O)NCCC[C@H](N)C(=O)Nc1ccc(C#Cc2c(F)c(F)nc(F)c2F)cc1`: the Kb amounted to 20200.
`N[C@@H](Cc1c[nH]c2ccccc12)C(=O)NCCCC[C@H](N)C(=O)Nc1ccc(C#Cc2c(F)c(F)nc(F)c2F)cc1`: the Kb was found to be 18000.
Regarding `N[C@@H](Cc1ccccc1)C(=O)NC[C@H](N)C(=O)Nc1ccc(C#Cc2c(F)c(F)nc(F)c2F)cc1`, the Kb was found to be 23300.

Test system in a further data set: not listed separately
Put plainly: Displacement of ethidium bromide from DNA (unknown origin) assessed as Stem-Volmer quenching constant at pH 6 by UV-spectroscopic analysis. Details: unit not given here.
Turning to `N[C@@H](Cc1ccccc1)C(=O)NCCC[C@H](N)C(=O)Nc1ccc(C#Cc2c(F)c(F)nc(F)c2F)cc1`, the KSV was determined as 27.8.
Turning to `C[C@H](N)C(=O)NCCC[C@H](N)C(=O)Nc1ccc(C#Cc2c(F)c(F)nc(F)c2F)cc1`, the KSV amounted to 11.1.
Turning to `N[C@@H](Cc1c[nH]c2ccccc12)C(=O)NCCCC[C@H](N)C(=O)Nc1ccc(C#Cc2c(F)c(F)nc(F)c2F)cc1`, the KSV is 26.
Consider `N[C@@H](Cc1ccccc1)C(=O)NC[C@H](N)C(=O)Nc1ccc(C#Cc2c(F)c(F)nc(F)c2F)cc1`, for which the KSV is 9.4.

As a reminder, the pKa is the pH at which an ionisable group is half protonated.
